Experimental data as given in US10760110B2, “Antibiotic testing and screening system” (priority 2017, dated 2020).
Like-named read-outs stand apart in the source and are kept apart here.

How the values were obtained:
[1] = tested on: K. pneumoniae NVT1001 ΔramRΔompK35/36 mutant and its revertants; test: Etest MIC, ΔramRΔompK35/36 mutant and its revertants (Table 7); type: cell-based; details: Klebsiella pneumoniae
[2] = tested on: K. pneumoniae NVT1001 strains with carbapenemase plasmids; test: Etest MIC of β-lactams, OmpK35/36 loss, ΔramR and/or carbapenemase (Table 9); type: cell-based, Klebsiella pneumoniae; details: for MIC: Klebsiella pneumoniae
How it was run: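 Cloned resistance genes in pACYC177 or pACYC184 were electroporated into K. pneumoniae NVT1001. MICs were determined by Etest and rounded up to the next two-fold value. Ceftazidime and cefotaxime against the blaOXA-48 construct were also tested by CLSI broth microdilution, with breakpoints from CLSI 2017 (cephalothin CLSI 2015, moxifloxacin EUCAST 2017).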

[3] = tested on: K. pneumoniae NVT1001 and its ΔompK35/36 and/or ΔramR mutants; test: Etest MIC, OmpK35/36 loss and AcrAB-TolC overexpression (ΔramR) strains (Table 6); type: cell-based, Klebsiella pneumoniae; details: Klebsiella pneumoniae
How it was run: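 Ceftazidime and cefotaxime were tested by CLSI broth microdilution on the blaOXA-48 pACYC177 transformant of NVT1001, using CLSI 2017 breakpoints. Parent, porin-deleted (ΔompK35/36) and ΔramR strains were tested by Etest, with values between two-fold dilutions rounded up.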

C[C@H]1[C@H](NC(=O)/C(=N\OC(C)(C)C(=O)O)c2csc(N)n2)C(=O)N1S(=O)(=O)O [Aztreonam]
0.125 µg/mL: MIC ([2]; OXA-48 on pACYC177, Δ36 (ΔompK36 mutant))
0.03 µg/mL: MIC ([1]; ΔramRΔompK35/36::ramR::ompK35/36 revertant) | MIC ([2]; no supplemental plasmid, WT (NVT1001), read-out: MIC) | MIC ([3]; WT, NVT1001, read-out: MIC)
256 µg/mL: MIC ([2]; KPC-2 on pACYC177, Δ36 (ΔompK36 mutant))
0.5 µg/mL: MIC ([1]; ΔramRΔompK35/36::ompK35/36 revertant) | MIC ([1]; ΔramRΔompK35/36::ompK36 revertant) | MIC ([1]; ΔramRΔompK35/36::ramR revertant) | MIC ([2]; IMP-8 on pACYC177, Δ35/36 (ΔompK35/36 mutant)) | MIC ([2]; IMP-8 on pACYC177, ΔramR mutant) | MIC ([2]; IMP-8 on pACYC177, ΔramRΔ35 (ΔramRΔompK35 mutant)) | MIC ([2]; IMP-8 on pACYC177, ΔramRΔ35/36 (ΔramRΔompK35/36 mutant)) | MIC ([2]; IMP-8 on pACYC177, ΔramRΔ36 (ΔramRΔompK36 mutant)) | MIC ([2]; NDM-1 on pACYC177, Δ35/36 (ΔompK35/36 mutant)) | MIC ([2]; NDM-1 on pACYC177, ΔramR mutant) | MIC ([2]; NDM-1 on pACYC177, ΔramRΔ35 (ΔramRΔompK35 mutant)) | MIC ([2]; NDM-1 on pACYC177, ΔramRΔ35/36 (ΔramRΔompK35/36 mutant)) | MIC ([2]; NDM-1 on pACYC177, ΔramRΔ36 (ΔramRΔompK36 mutant)) | MIC ([2]; OXA-48 on pACYC177, Δ35/36 (ΔompK35/36 mutant)) | MIC ([2]; OXA-48 on pACYC177, ΔramR mutant) | MIC ([2]; OXA-48 on pACYC177, ΔramRΔ35 (ΔramRΔompK35 mutant)) | MIC ([2]; OXA-48 on pACYC177, ΔramRΔ35/36 (ΔramRΔompK35/36 mutant)) | MIC ([2]; OXA-48 on pACYC177, ΔramRΔ36 (ΔramRΔompK36 mutant)) | MIC ([2]; VIM-1 on pACYC177, Δ35/36 (ΔompK35/36 mutant)) | MIC ([2]; VIM-1 on pACYC177, ΔramR mutant) | MIC ([2]; VIM-1 on pACYC177, ΔramRΔ35 (ΔramRΔompK35 mutant)) | MIC ([2]; no supplemental plasmid, Δ35/36 (ΔompK35/36 mutant)) | MIC ([2]; no supplemental plasmid, ΔramR mutant) | MIC ([2]; no supplemental plasmid, ΔramRΔ35 (ΔramRΔompK35 mutant)) | MIC ([3]; Δ35/36, ΔompK35/36 mutant) | MIC ([3]; ΔramR mutant) | MIC ([3]; ΔramRΔ35, ΔramRΔompK35 mutant)
1 µg/mL: MIC ([1]; ΔramRΔompK35/36::ompK35 revertant) | MIC ([1]; ΔramRΔompK35/36 mutant) | MIC ([2]; VIM-1 on pACYC177, ΔramRΔ35/36 (ΔramRΔompK35/36 mutant)) | MIC ([2]; VIM-1 on pACYC177, ΔramRΔ36 (ΔramRΔompK36 mutant)) | MIC ([2]; no supplemental plasmid, ΔramRΔ35/36 (ΔramRΔompK35/36 mutant)) | MIC ([2]; no supplemental plasmid, ΔramRΔ36 (ΔramRΔompK36 mutant)) | MIC ([3]; ΔramRΔ35/36, ΔramRΔompK35/36 mutant) | MIC ([3]; ΔramRΔ36, ΔramRΔompK36 mutant)
0.25 µg/mL: MIC ([1]; ΔramRΔompK35/36::ramR::ompK36 revertant) | MIC ([2]; IMP-8 on pACYC177, Δ35 (ΔompK35 mutant)) | MIC ([2]; NDM-1 on pACYC177, Δ35 (ΔompK35 mutant)) | MIC ([2]; OXA-48 on pACYC177, Δ35 (ΔompK35 mutant)) | MIC ([2]; VIM-1 on pACYC177, Δ35 (ΔompK35 mutant)) | MIC ([2]; no supplemental plasmid, Δ35 (ΔompK35 mutant)) | MIC ([3]; Δ35, ΔompK35 mutant)
> 256 µg/mL: MIC ([2]; KPC-2 on pACYC177, WT (NVT1001), read-out: MIC) | MIC ([2]; KPC-2 on pACYC177, Δ35 (ΔompK35 mutant)) | MIC ([2]; KPC-2 on pACYC177, Δ35/36 (ΔompK35/36 mutant)) | MIC ([2]; KPC-2 on pACYC177, ΔramR mutant) | MIC ([2]; KPC-2 on pACYC177, ΔramRΔ35 (ΔramRΔompK35 mutant)) | MIC ([2]; KPC-2 on pACYC177, ΔramRΔ35/36 (ΔramRΔompK35/36 mutant)) | MIC ([2]; KPC-2 on pACYC177, ΔramRΔ36 (ΔramRΔompK36 mutant)) | MIC ([2]; KPC-3 on pACYC177, WT (NVT1001), read-out: MIC) | MIC ([2]; KPC-3 on pACYC177, Δ35 (ΔompK35 mutant)) | MIC ([2]; KPC-3 on pACYC177, Δ35/36 (ΔompK35/36 mutant)) | MIC ([2]; KPC-3 on pACYC177, Δ36 (ΔompK36 mutant)) | MIC ([2]; KPC-3 on pACYC177, ΔramR mutant) | MIC ([2]; KPC-3 on pACYC177, ΔramRΔ35 (ΔramRΔompK35 mutant)) | MIC ([2]; KPC-3 on pACYC177, ΔramRΔ35/36 (ΔramRΔompK35/36 mutant)) | MIC ([2]; KPC-3 on pACYC177, ΔramRΔ36 (ΔramRΔompK36 mutant))
susceptible: susceptibility category ([2]; IMP-8, NDM-1, VIM-1 and OXA-48 strains, with or without OmpK35/36 loss and/or ΔramR)
0.06 µg/mL: MIC ([1]; ΔramRΔompK35/36::ramR::ompK35 revertant) | MIC ([2]; IMP-8 on pACYC177, WT (NVT1001), read-out: MIC) | MIC ([2]; IMP-8 on pACYC177, Δ36 (ΔompK36 mutant)) | MIC ([2]; NDM-1 on pACYC177, WT (NVT1001), read-out: MIC) | MIC ([2]; NDM-1 on pACYC177, Δ36 (ΔompK36 mutant)) | MIC ([2]; OXA-48 on pACYC177, WT (NVT1001), read-out: MIC) | MIC ([2]; VIM-1 on pACYC177, WT (NVT1001), read-out: MIC) | MIC ([2]; VIM-1 on pACYC177, Δ36 (ΔompK36 mutant)) | MIC ([2]; no supplemental plasmid, Δ36 (ΔompK36 mutant)) | MIC ([3]; Δ36, ΔompK36 mutant)
